Test results reported in US11396502B2, “Substituted heterocyclic derivatives as PI3K inhibitors” (Incyte Corporation, priority 2018, dated 2022).
Where a name gives a salt, the structure may show the parent alone. Read-outs that look alike come from different tables or passages of the source.

Experiments:
[1] = target: PI3Kδ (p110δ/p85α) (Homo sapiens (Human), UniProt O00329); experiment: PI3Kδ scintillation proximity assay; format: biochemical; settings: recombinant human PI3Kδ 3.4 nM, 20 μM PIP2, 2 μM ATP, 120 min, room temperature
Chain of PI3Kδ (p110δ/p85α) (O00329 whole entry): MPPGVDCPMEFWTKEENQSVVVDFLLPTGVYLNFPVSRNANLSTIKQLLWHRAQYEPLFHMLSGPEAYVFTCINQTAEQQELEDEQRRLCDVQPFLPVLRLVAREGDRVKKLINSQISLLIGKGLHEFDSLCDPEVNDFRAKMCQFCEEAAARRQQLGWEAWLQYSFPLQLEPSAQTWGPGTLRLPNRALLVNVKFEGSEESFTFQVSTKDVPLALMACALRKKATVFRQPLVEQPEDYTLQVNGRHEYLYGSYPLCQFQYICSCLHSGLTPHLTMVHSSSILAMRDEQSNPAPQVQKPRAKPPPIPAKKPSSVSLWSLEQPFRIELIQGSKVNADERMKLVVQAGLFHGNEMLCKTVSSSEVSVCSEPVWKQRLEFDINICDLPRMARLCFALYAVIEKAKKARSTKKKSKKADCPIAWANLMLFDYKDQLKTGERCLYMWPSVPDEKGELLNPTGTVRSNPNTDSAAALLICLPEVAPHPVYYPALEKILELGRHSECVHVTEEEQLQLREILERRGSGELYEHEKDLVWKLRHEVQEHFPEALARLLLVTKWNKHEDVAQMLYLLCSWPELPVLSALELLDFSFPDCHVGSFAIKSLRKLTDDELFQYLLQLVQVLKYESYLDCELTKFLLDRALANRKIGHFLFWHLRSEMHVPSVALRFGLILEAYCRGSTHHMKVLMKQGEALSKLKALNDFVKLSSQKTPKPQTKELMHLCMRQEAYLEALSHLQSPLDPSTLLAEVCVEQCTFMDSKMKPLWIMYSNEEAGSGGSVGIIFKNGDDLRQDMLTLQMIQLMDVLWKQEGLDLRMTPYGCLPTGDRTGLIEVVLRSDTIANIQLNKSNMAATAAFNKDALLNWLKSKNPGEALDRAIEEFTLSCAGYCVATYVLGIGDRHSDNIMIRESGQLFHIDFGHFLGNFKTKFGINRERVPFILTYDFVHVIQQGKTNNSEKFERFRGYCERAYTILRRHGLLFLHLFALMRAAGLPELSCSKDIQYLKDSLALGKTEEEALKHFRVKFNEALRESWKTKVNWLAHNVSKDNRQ
Chain of PI3Kδ (p110δ/p85α) (P27986 whole entry partner): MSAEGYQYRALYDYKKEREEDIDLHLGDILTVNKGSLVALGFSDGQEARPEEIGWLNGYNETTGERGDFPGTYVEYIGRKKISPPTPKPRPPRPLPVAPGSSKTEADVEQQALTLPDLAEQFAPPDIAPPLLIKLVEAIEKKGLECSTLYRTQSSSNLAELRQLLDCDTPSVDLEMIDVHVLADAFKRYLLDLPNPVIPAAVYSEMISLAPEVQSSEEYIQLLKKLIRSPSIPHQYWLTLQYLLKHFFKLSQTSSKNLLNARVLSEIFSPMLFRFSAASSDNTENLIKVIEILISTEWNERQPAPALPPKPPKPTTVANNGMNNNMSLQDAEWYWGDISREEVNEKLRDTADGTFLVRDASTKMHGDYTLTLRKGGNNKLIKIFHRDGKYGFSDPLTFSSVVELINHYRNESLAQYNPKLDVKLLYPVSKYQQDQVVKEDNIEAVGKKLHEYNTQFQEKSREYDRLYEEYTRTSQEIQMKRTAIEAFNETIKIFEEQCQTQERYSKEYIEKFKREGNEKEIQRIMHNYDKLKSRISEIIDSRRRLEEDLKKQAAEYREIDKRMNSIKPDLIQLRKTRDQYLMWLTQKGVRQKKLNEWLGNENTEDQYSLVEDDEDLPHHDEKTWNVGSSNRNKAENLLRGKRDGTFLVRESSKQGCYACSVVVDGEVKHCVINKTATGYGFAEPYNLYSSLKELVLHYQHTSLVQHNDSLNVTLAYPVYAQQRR
Text: Example C. PI3Kδ Scintillation Proximity Assay Materials: [γ-^33P]ATP (10 mCi/mL) and Wheat Germ Agglutinin (WGA) YSi SPA Scintillation Beads was purchased from Perkin Elmer (Waltham, Mass.). Lipid kinase substrate, D-myo-Phosphatidylinositol 4,5-bisphosphate (PtdIns(4,5)P2)D (+)-sn-1,2-di-O-octanoylglyceryl, 3-O-phospho linked (PIP2), CAS 204858-53-7, was purchased from Echelon Biosciences (Salt Lake City, Utah). PI3Kδ (p110δ/p85α) Recombinant Human Protein was purchased from Eurofins (St Charles, Mo.). ATP, MgCl2, DTT, EDTA, MOPS and CHAPS were purchased from Sigma Aldrich (St. Louis, Mo.). The kinase reaction was conducted in polystyrene 384-well Greiner Bio-one white plate from Thermo Fisher Scientific in a final volume of 25 μL. Inhibitors were first diluted serially in DMSO and added to the plate wells before the addition of other reaction components. The final concentration of DMSO in the assay was 2%. The PI3Kδ assay was carried out at room temperature in 20 mM MOPS, pH 6.7, 10 mM MgCl2, 5 mM DTT and CHAPS 0.03%. Reactions were initiated by the addition of ATP, the final reaction mixture consisted of 20 μM PIP2, 2 μM ATP, 0.5 μCi [γ-^33P] ATP, 3.4 nM PI3Kδ. Reactions were incubated for 120 min and terminated by the addition of 40 μL SPA beads suspended in quench buffer: 163 mM potassium phosphate pH 7.8, 20% glycerol, 25 mM EDTA. The final concentration of SPA beads is 1.0 mg/mL. After the plate sealing, plates were shaken overnight at room temperature and centrifuged at 1500 rpm for 10 min, the radioactivity of the product was determined by scintillation counting on Topcount (PerkinElmer). IC50 determination was performed by fitting the curve of percent of the solvent control activity versus the log of the inhibitor concentration using the GraphPad Prism 6.0 software.

[2] = target: PI3Kγ (p110γ) (Homo sapiens (Human), UniProt P48736); experiment: PI3K-γ scintillation proximity assay; format: biochemical; settings: recombinant human PI3Kγ 13 nM, 20 μM PIP2, 2 μM ATP, 120 min, room temperature
Chain of PI3Kγ (p110γ) (P48736 whole entry): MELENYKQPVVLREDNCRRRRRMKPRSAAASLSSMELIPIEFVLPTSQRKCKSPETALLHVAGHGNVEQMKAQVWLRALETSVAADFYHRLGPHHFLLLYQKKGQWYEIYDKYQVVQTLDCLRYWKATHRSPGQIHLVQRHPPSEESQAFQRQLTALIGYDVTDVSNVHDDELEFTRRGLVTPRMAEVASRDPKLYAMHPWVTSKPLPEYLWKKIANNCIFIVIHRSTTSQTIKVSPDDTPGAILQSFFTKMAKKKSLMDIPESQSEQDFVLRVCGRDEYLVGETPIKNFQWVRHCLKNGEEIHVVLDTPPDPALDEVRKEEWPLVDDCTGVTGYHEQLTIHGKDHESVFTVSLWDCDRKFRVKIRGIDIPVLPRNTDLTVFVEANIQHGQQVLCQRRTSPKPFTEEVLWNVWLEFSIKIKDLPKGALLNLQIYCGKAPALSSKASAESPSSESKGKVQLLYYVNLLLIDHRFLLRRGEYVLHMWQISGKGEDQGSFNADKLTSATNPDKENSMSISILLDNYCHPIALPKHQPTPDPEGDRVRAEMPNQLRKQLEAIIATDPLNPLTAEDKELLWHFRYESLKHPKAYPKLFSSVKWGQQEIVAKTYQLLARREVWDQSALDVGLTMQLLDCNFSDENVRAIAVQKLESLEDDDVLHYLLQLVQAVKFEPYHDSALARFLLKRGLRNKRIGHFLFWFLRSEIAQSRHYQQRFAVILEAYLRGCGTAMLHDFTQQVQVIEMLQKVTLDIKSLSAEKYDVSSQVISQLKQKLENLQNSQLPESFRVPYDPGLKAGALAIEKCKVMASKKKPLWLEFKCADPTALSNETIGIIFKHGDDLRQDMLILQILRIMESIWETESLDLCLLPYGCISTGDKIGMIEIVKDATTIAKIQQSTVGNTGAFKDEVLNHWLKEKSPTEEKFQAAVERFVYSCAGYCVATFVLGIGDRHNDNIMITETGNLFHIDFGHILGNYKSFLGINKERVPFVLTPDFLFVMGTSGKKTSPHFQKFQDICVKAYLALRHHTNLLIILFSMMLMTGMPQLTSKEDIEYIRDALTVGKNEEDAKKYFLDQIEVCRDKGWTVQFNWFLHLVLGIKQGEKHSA
Text: Example B. PI3K-γ Scintillation Proximity Assay Materials: [γ-^33P]ATP (10 mCi/mL) and Wheat Germ Agglutinin (WGA) YSi SPA Scintillation Beads was purchased from Perkin Elmer (Waltham, Mass.). Lipid kinase substrate, D-myo-Phosphatidylinositol 4,5-bisphosphate (PtdIns(4,5)P2)D (+)-sn-1,2-di-O-octanoylglyceryl, 3-O-phospho linked (PIP2), CAS 204858-53-7, was purchased from Echelon Biosciences (Salt Lake City, Utah). PI3Kγ (p110γ) Recombinant Human Protein was purchased from Life technology (Grand Island, N.Y.). ATP, MgCl2, DTT, EDTA, MOPS and CHAPS were purchased from Sigma Aldrich (St. Louis, Mo.). The kinase reaction was conducted in polystyrene 384-well Greiner Bio-one white plate from Thermo Fisher Scientific in a final volume of 25 μL. Inhibitors were first diluted serially in DMSO and added to the plate wells before the addition of other reaction components. The final concentration of DMSO in the assay was 2%. The PI3Kγ assay was carried out at room temperature in 20 mM MOPS, pH 6.7, 10 mM MgCl2, 5 mM DTT and CHAPS 0.03%. Reactions were initiated by the addition of ATP, the final reaction mixture consisted of 20 μM PIP2, 2 μM ATP, 0.5 μCi [γ-^33P] ATP, 13 nM PI3Kγ. Reactions were incubated for 120 min and terminated by the addition of 40 μL SPA beads suspended in quench buffer: 163 mM potassium phosphate pH 7.8, 20% glycerol, 25 mM EDTA. The final concentration of SPA beads is 1.0 mg/mL. After the plate sealing, plates were shaken overnight at room temperature and centrifuged at 1500 rpm for 10 min, the radioactivity of the product was determined by scintillation counting on Topcount (Perkin-Elmer). IC50 determination was performed by fitting the curve of percent of the solvent control activity versus the log of the inhibitor concentration using the GraphPad Prism 6.0 software.

[3] = tested on: Phosphorylated Ribosomal Protein S6 (RPS6) in THP-1 cells; experiment: THP-1 RPS6 ELISA assay; format: cell-based, Human; settings: Homo sapiens
Description: Example A. THP-1 RPS6 ELISA Assay
To measure the Phosphorylated Ribosomal Protein S6 (RPS6) in cell lysates, THP-1 cells (Human Acute Monocytic Leukemia) are purchased from ATCC (Manassas, Va.) and maintained in RPMI with 10% FBS (Gibco/Life Technologies, Carlsbad, Calif.). For the assay, THP-1 cells are serum starved overnight in RPMI, then plated in RPMI (2×10^5 cells/well in 90 μL) into 96-well flat-bottom tissue culture treated plates (Corning, Corning, N.Y.), in the presence or absence of a concentration range of test compounds. Covered plates are incubated for 2 hours at 37° C., 5% CO2 then treated with or without 10 nM MCP-1 (MYBioSource, San Diego, Calif.) for 15 minutes at 37° C., 5% CO2. Plates are centrifuged at 1600 RPM and supernatants are removed. Cells are lysed in Lysis Buffer (Cell Signaling, Danvers, Mass.) with Protease Inhibitor (Calbiochem/EMD, Germany), PMSF (Sigma, St Louis Mo.), HALTS (Thermo Fisher, Rockford, Ill.) for 30 min on wet ice. Cell lysates are frozen at −80° C. before testing. The lysates are tested in the Human/Mouse/Rat Phospho-RPS6 ELISA (R&D Systems, Inc. Minn, Minn.). The plate is measured using a microplate reader (SpectraMax M5—Molecular Devices, LLC Sunnyvale, Calif.) set to 450 nm with a wavelength correction of 540. IC50 determination is performed by fitting the curve of inhibitor percent inhibition versus the log of the inhibitor concentration using the GraphPad Prism 5.0 software.

[4] = THP-1, serum starved THP-1 cells, 2 hours compound, 10 nM MCP-1 for 15 minutes, Phospho-RPS6 ELISA, read-out: PI3Kγ_THP1_RPS6_ELISA IC50

IC50 [1] [nM] | IC50 [2] [nM] | IC50 [3, 4] [nM] | SMILES | IC50 ([3]; THP-1, read-out: PI3Kγ_THP1_RPS6_ELISA IC50 (nM)) [nM]
500 to 2000 | < 100 | 500 to 1000 | CN=S(C)(=O)c1cc(-c2ccnc(-c3nc(C)c(C)[nH]3)c2)cc2c1C(=O)N([C@@H](C)C1CC1)C2 (single isomer, unassigned) [Example 25] | 
> 2000 | < 100 | > 1000 | Cc1cnc(-c2cc(-c3cc4c(c(N=S(C)(C)=O)c3)C(=O)N([C@@H](C)C3CC3)C4)ccn2)[nH]1 (single isomer, unassigned) [Example 26] | 
100 to 500 | < 100 | 500 to 1000 | Cc1nc(-c2cc(-c3cc(Cl)c4c(c3)CN([C@@H](C)C3CC3)C4=O)ccn2)[nH]c1C [Example 1, (S)-7-Chloro-2-(1-cyclopropylethyl)-5-(2-(4,5-dimethyl-1H-imidazol-2-yl)pyridin-4-yl)isoindolin-1-one] | 
100 to 500 | < 100 | 500 to 1000 | Cc1nc(-c2cc(-c3cc4c(c(S(C)(=O)=O)c3)C(=O)N([C@@H](C)C3CC3)C4)ccn2)[nH]c1C [Example 2, (S)-2-(1-Cyclopropylethyl)-5-(2-(4,5-dimethyl-1H-imidazol-2-yl)pyridin-4-yl)-7-(methylsulfonyl)isoindolin-1-one Trifluoroacetate Salt] | 
500 to 2000 | < 100 | > 1000 | Cc1[nH]c(-c2cc(-c3ccc4c(c3)CN([C@@H](C)C3CC3)C4=O)ccn2)nc1C(=O)NC(C)C [Example 3, (S)-2-(4-(2-(1-Cyclopropylethyl)-1-oxoisoindolin-5-yl)pyridin-2-yl)-N-isopropyl-5-methyl-1H-imidazole-4-carboxamide Trifluoroacetate Salt] | 
500 to 2000 | < 100 | > 1000 | Cc1[nH]c(-c2cc(-c3ccc4c(c3)CN([C@@H](C)C3CC3)C4=O)ccn2)nc1C(=O)NC1CCOCC1 [Example 4, (S)-2-(4-(2-(1-Cyclopropylethyl)-1-oxoisoindolin-5-yl)pyridin-2-yl)-5-methyl-N-(tetrahydro-2H-pyran-4-yl)-1H-imidazole-4-carboxamide trifluoroacetate salt] | 
> 2000 | < 100 | > 1000 | Cc1[nH]c(-c2cc(-c3ccc4c(c3)CN([C@@H](C)C3CC3)C4=O)ccn2)nc1C(=O)N(C)C [Example 5, (S)-2-(4-(2-(1-Cyclopropylethyl)-1-oxoisoindolin-5-yl)pyridin-2-yl)-N,N,5-trimethyl-1H-imidazole-4-carboxamide trifluoroacetate salt] | 
> 2000 | < 100 | > 1000 | CNC(=O)c1nc(-c2cc(-c3ccc4c(c3)CN([C@@H](C)C3CC3)C4=O)ccn2)[nH]c1C [Example 6, (S)-2-(4-(2-(1-Cyclopropylethyl)-1-oxoisoindolin-5-yl)pyridin-2-yl)-N,5-dimethyl-1H-imidazole-4-carboxamide trifluoroacetate salt] | 
500 to 2000 | < 100 | 100 to 500 | CNC(=O)c1nc(-c2cc(-c3cc4c(c(S(C)(=O)=O)c3)C(=O)N([C@@H](C)C3CC3)C4)ccn2)[nH]c1C [Example 7, (S)-2-(4-(2-(1-Cyclopropylethyl)-7-(methylsulfonyl)-1-oxoisoindolin-5-yl)pyridin-2-yl)-N,4-dimethyl-1H-imidazole-5-carboxamide, trifluoroacetate salt] | 
100 to 500 | < 100 | 500 to 1000 | Cc1[nH]c(-c2cc(-c3cc4c(c(S(C)(=O)=O)c3)C(=O)N([C@@H](C)C3CC3)C4)ccn2)nc1C(=O)NC1CCOCC1 [Example 7b, (S)-2-(4-(2-(1-Cyclopropylethyl)-7-(methylsulfonyl)-1-oxoisoindolin-5-yl)pyridin-2-yl)-4-methyl-N-(tetrahydro-2H-pyran-4-yl)-1H-imidazole-5-carboxamide, trifluoroacetate salt] | 
100 to 500 | < 100 | > 1000 | Cc1[nH]c(-c2cc(-c3cc4c(c(S(C)(=O)=O)c3)C(=O)N([C@@H](C)C3CC3)C4)ccn2)nc1C(=O)NC12CC(C1)C2 [Example 7c, (S)-N-(Bicyclo[1.1.1]pentan-1-yl)-2-(4-(2-(1-cyclopropylethyl)-7-(methylsulfonyl)-1-oxoisoindolin-5-yl)pyridin-2-yl)-4-methyl-1H-imidazole-5-carboxamide, trifluoroacetate salt] | 
100 to 500 | < 100 | 100 to 500 | Cc1[nH]c(-c2cc(-c3cc4c(c(S(C)(=O)=O)c3)C(=O)N([C@@H](C)C3CC3)C4)ccn2)nc1C(=O)N1CC(F)(F)C1 [Example 7d, (S)-2-(1-Cyclopropylethyl)-5-(2-(5-(3,3-difluoroazetidine-1-carbonyl)-4-methyl-1H-imidazol-2-yl)pyridin-4-yl)-7-(methylsulfonyl)isoindolin-1-one, trifluoroacetate salt] | 
100 to 500 | < 100 | > 1000 | Cc1[nH]c(-c2cc(-c3cc4c(c(S(C)(=O)=O)c3)C(=O)N([C@@H](C)C3CC3)C4)ccn2)nc1C(=O)N1CC(O)C1 [Example 7e, (S)-2-(1-Cyclopropylethyl)-5-(2-(5-(3-hydroxyazetidine-1-carbonyl)-4-methyl-1H-imidazol-2-yl)pyridin-4-yl)-7-(methylsulfonyl)isoindolin-1-one, trifluoroacetate salt] | 

SMILES | IC50 [1] [nM] | IC50 [2] [nM] | IC50 [3, 4] [nM] | IC50 ([3]; THP-1, read-out: PI3Kγ_THP1_RPS6_ELISA IC50 (nM)) [nM]
Cc1[nH]c(-c2cc(-c3cc4c(c(S(C)(=O)=O)c3)C(=O)N([C@@H](C)C3CC3)C4)ccn2)nc1C(=O)NC(C)C [Example 7a, (S)-2-(4-(2-(1-Cyclopropylethyl)-7-(methylsulfonyl)-1-oxoisoindolin-5-yl)pyridin-2-yl)-N-isopropyl-4-methyl-1H-imidazole-5-carboxamide, trifluoroacetate salt] | 100 to 500 | < 100 |  | < 100
